Source: patent publication US20250248979A1, “NOVEL GPX4 INHIBITORS AND USES THEREOF” (THE TRUSTEES OF COLUMBIA UNIVERSITY IN THE CITY OF NEW YORK, priority 2022, published 2025)
Entries after “also recorded” stand apart in the source; their conditions may differ. Like-named read-outs stand apart in the source and are kept apart here.

Key:
in vitro [1] = assay type: in vitro ADME, mouse; settings: mouse, microsomes
Method: (§1) […]. The incubation timepoints measured were 0, 5, 10, 15, 30, and 45 minutes. All samples were prepared in duplicate and analyzed by LC-MS/MS.

in vitro [2] = assay type: in vitro ADME, human; settings: human, microsomes
Method: as §1

GPX4 = biological target: T1, GPX4 (Homo sapiens, UniProt P36969); test: GPX4 activity assay in cell lysates (NADPH-coupled); assay type: biochemical; set-up: endogenous in cells; host or cells: A-673 cell lysate
T1 sequence (P36969 1-170 isoform P36969-2): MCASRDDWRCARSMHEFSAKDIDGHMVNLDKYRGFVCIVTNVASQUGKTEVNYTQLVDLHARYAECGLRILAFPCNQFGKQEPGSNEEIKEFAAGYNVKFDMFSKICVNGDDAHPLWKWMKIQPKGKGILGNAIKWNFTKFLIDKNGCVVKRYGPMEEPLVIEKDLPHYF
Outline: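 Native GPX4 in lysates of A-673 cells grown with 20 nM sodium selenite; lysate preincubated with compound 45 min at 37 °C in pH 8.0 buffer with 3 mM GSH, 0.5 mM NADPH and glutathione reductase. Reaction started with phosphatidylcholine hydroperoxide; NADPH consumption followed at 340 nm over 25 min; triplicates.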

SU-DHL-6 = test: Cytotoxicity in DLBCL cells, SU-DHL-6; assay type: cell-based, human
[3] = test system: lipid peroxidation in HT-1080 cells; test: C11-BODIPY lipid peroxidation flow cytometry assay; assay type: cell-based, human; settings: HT-1080 cells, with and without fer-1
[4] = test system: DTP cells derived from PC9; test: Drug-tolerant persister cell model, DTP cells; settings: for % Viability Persister: 48 hours
HT-1080 cells = test: Cellular dose response assay, HT-1080 with and without Fer-1; assay type: cell-based, human
Outline: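 Following overnight attachment (1500 cells per well), triplicate wells got 2-fold serial dilutions across 12 points, with or without Fer-1 for HT-1080, at 0.4% final DMSO. After 48 h incubation, luminescent ATP-based viability (CellTiter-Glo) was recorded.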

SMILES: COc1ccc(-c2ccc3c(C(=O)NC(C)(C)COC(=O)CCl)nn(C)c3c2)cc1Cl [QW-446]
- Microsome Stability t1/2 (min) mouse (in vitro [1]): 1.2 min
- Microsome Stability t1/2 (min) human (in vitro [2]): 1.6 min
- GPX4 inhibitory activity, result in words (GPX4): greater GPX4 inhibitory activity than QW-314 at 5 μM
- GPX4% inhibition at 2.5 μM (GPX4; 2.5 μM): 79.1 ± 4.4%
- GPX4% inhibition at 5 μM (GPX4; 5 μM): 88.1 ± 2.7%
- GPX4 inhibition rate (GPX4; concentration not given): 90%
- IC50 (GPX4; mean±SD, n=3 (FIG. 84E), read-out: IC50 in the in vitro GPX4 activity assay): 490 nM
- ferroptosis induction / potency in SU-DHL-6 cells, result in words (SU-DHL-6): a potency that is similar to RSL3
- lipid peroxidation (C11-BODIPY), result in words [3]: induced fer-1 rescuable increases in lipid peroxidation
- selectivity for DTPs vs PC9 parental cells, result in words [4]: show DTP selectivity relative to PC9 parental cells; also recorded: selective and similar or stronger cytotoxicity to DTP cells
- % Viability Persister ([4]; dose 0.5 μM): 127.75%
- % Viability Persister + 2 μM Fer-1 ([4]; dose 0.5 μM): 110.75%
- % Viability Persister ([4]; dose 10.0 μM): 26.50%
- % Viability Persister + 2 μM Fer-1 ([4]; dose 10.0 μM): 107.50%
- % Viability Persister ([4]; dose 20.0 μM): 4.25%
- % Viability Persister + 2 μM Fer-1 ([4]; dose 20.0 μM): 27.00%
- IC50 (HT-1080 cells; HT1080 + Fer-1, read-out: IC50 (uM) HT1080 + Fer-1): 30.3 µM
- ferroptosis selectivity (HT-1080 cells; HT-1080): 69
- Selectivity (HT-1080 cells; ferroptosis selectivity, HT1080 + Fer-1 vs HT1080): 69
- IC50 (HT-1080 cells; read-out: IC50 HT1080): 0.44 µM
